Tests used:
Experiment in all cases: relative viability (nuclei count vs DMSO), 5 days (fraction); higher = more cells survive
[1] = compound: OCc1c[nH]c2ccccc12 [Indole-3-carbinol] + CC1(C)CCC(c2ccc(Cl)cc2)=C(CN2CCN(c3ccc(C(=O)NS(=O)(=O)c4ccc(N[C@H](CCN5CCOCC5)CSc5ccccc5)c(S(=O)(=O)C(F)(F)F)c4)cc3)CC2)C1 [Navitoclax] (partner 0.5 µM)
Method in brief: (§1)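 Relative viability is defined as nuclei in treated wells over nuclei in vehicle wells. Duplicate plates were run and medians reported. Lung cancer cell lines in 1536-well plates were dosed by pin tool one day after seeding, with one drug or with a fixed anchor-drug dose plus five library-drug doses (not always all listed) in √10 steps, and nuclei were counted after 5 days.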

[2] = compound: OCc1c[nH]c2ccccc12 [Indole-3-carbinol] + COc1cc2c(Oc3ccc(NC(=O)C4(C(=O)Nc5ccc(F)cc5)CC4)cc3F)ccnc2cc1OCCCN1CCOCC1 [Foretinib] (partner 0.25 µM)
Method in brief: as §1

[3] = compound: OCc1c[nH]c2ccccc12 [Indole-3-carbinol] + COc1cccc2cc(-c3nc([C@H]4CC[C@H](C(=O)O)CC4)n4ncnc(N)c34)[nH]c12 [OSI-027] (partner 0.5 µM)
Method in brief: as §1

[4] = compound: OCc1c[nH]c2ccccc12 [Indole-3-carbinol] + Cc1cc(Nc2cc(N3CCN(C)CC3)nc(Sc3ccc(NC(=O)C4CC4)cc3)n2)n[nH]1 [Tozasertib] (partner 0.1 µM)
Method in brief: as §1

[5] = compound: OCc1c[nH]c2ccccc12 [Indole-3-carbinol] + Nc1nc2[nH]cc(CCc3ccc(C(=O)N[C@@H](CCC(=O)O)C(=O)O)cc3)c2c(=O)[nH]1 [Pemetrexed] (partner 0.2 µM)
Method in brief: as §1

Cell Line	relative viability ([1]; first compound 0.253 µM)	relative viability ([1]; first compound 0.8 µM)	relative viability ([1]; first compound 2.53 µM)	relative viability ([1]; first compound 8 µM)	relative viability ([2]; first compound 0.253 µM)	relative viability ([2]; first compound 0.8 µM)	relative viability ([2]; first compound 2.53 µM)	relative viability ([2]; first compound 8 µM)	relative viability ([3]; first compound 0.253 µM)	relative viability ([3]; first compound 0.8 µM)	relative viability ([3]; first compound 2.53 µM)	relative viability ([3]; first compound 8 µM)	relative viability ([4]; first compound 0.253 µM)	relative viability ([4]; first compound 0.8 µM)	relative viability ([4]; first compound 2.53 µM)	relative viability ([4]; first compound 8 µM)	relative viability ([5]; first compound 0.253 µM)	relative viability ([5]; first compound 0.8 µM)	relative viability ([5]; first compound 2.53 µM)	relative viability ([5]; first compound 8 µM)
201T	1.22	1.15	1.18	1.2	1.1	1.07	1.04	1.01	0.895	0.765	0.748	0.718	0.958	0.978	1.02	0.969	0.345	0.354	0.362	0.322
A549	1.16	1.29	1.22	1.17	0.968	1.04	0.911	0.965	–	–	–	–	–	–	–	–	–	–	–	–
A-427	0.963	1.05	0.97	0.947	0.941	1.14	1.01	0.94	0.372	0.444	0.566	0.537	0.193	0.226	0.226	0.224	0.997	1.03	0.926	0.946
ABC-1	–	–	–	–	0.903	0.961	1.13	1	0.381	0.511	0.565	0.565	0.186	0.214	0.164	0.158	–	–	–	–
BEN	0.0839	0.0691	0.0796	0.048	0.566	0.501	0.651	0.624	0.275	0.271	0.33	0.331	0.463	–	0.479	0.554	0.75	0.704	0.757	0.905
CAL-12T	1.21	1.48	1.16	0.993	1.13	1.17	1.01	1.09	0.709	0.775	0.62	0.623	0.291	0.351	0.335	0.278	1.28	1.44	1.12	1.24
COR-L23	1.17	1.07	0.976	0.797	0.992	0.977	1.1	0.951	0.66	0.718	0.854	0.628	0.201	0.243	0.296	0.185	0.193	0.202	0.198	0.209
COR-L 105	0.718	0.701	0.821	0.631	1.22	0.838	0.963	1.03	0.751	0.586	0.73	0.785	0.366	0.385	0.378	0.347	1.09	0.996	1.19	0.981
ChaGo-K-1	0.805	0.962	0.913	0.966	0.955	0.941	0.872	0.894	0.56	0.543	0.605	0.567	0.218	0.219	0.231	0.211	0.258	0.258	0.27	0.257
EKVX	1.13	1.01	0.983	0.873	0.859	0.97	0.844	0.829	0.719	0.74	0.731	0.633	0.423	0.428	0.421	0.383	0.4	0.46	0.413	0.452
EMC-BAC-2	1.16	1.21	1.11	1.04	1.02	1.01	0.917	0.923	0.32	0.356	0.386	0.359	0.267	0.309	0.25	0.259	0.393	0.441	0.439	0.448
EPLC-272H	1.32	1.08	1.26	0.988	0.67	0.72	0.724	0.709	0.252	0.299	0.333	0.218	0.33	0.267	0.369	0.396	0.34	0.349	0.36	0.349
H3255	0.643	0.523	0.54	0.467	0.985	0.669	1.09	0.917	0.518	0.625	0.543	0.545	0.691	0.599	0.635	0.58	0.547	0.54	0.637	0.625
HARA	1.18	1.17	1.14	1.16	0.777	0.932	1.09	0.809	0.572	0.436	0.597	0.556	0.119	0.125	0.12	0.179	0.267	0.239	0.243	0.242
HCC-15	0.692	0.722	0.66	0.71	1.04	1.14	1.07	1.01	0.681	0.79	0.676	0.701	0.348	0.52	0.495	0.398	0.214	0.226	0.205	0.235
HCC-44	1.05	0.986	0.941	0.859	–	–	–	–	0.488	0.412	0.484	0.525	0.97	0.575	1.11	0.922	0.679	0.659	0.694	0.541
HCC-78	0.925	0.553	0.776	0.719	0.558	0.526	0.592	0.523	0.363	0.359	0.39	0.346	0.301	0.454	0.569	0.415	0.89	0.947	0.929	0.891
